Measurements taken from US20260176266A1, “PIPERIDINOPYRIMIDINE DERIVATIVE, PREPARATION METHOD THEREFOR AND USE THEREOF IN MEDICINE” (TUOJIE BIOTECH (SHANGHAI) CO., LTD., priority 2022, published 2026).
Blank lines part the entries; values can stand above or below the molecule they belong to.

How the values were obtained:
Format in all cases: cell-based
[1] = tested on: OVCAR3 ovarian cancer cells; test: Inhibitory activity against ovarian cancer cells (OVCAR3), CellTiter-Glo viability; conditions: Homo sapiens, OVCAR-3, 120 h, OVCAR3, 5 days treatment
Description: OVCAR3 ovarian cancer cells were cultured in a cell incubator at […] with 5% CO2 using RPMI 1640 medium with […]. On the first day, the cells were plated in a 96-well plate at a cell concentration of 2500 cells/well and cultured overnight in the incubator. On the second day, the cells were treated with compounds. The maximum compound concentration was 10 μM and was 3-fold diluted to obtain 9 concentrations, and the final concentration of DMSO was 0.1%. After the cells were cultured in the incubator for another 5 days, cell viability was tested using the Celltiter Glo assay kit (Promega), and the testing method was consistent with the operational method provided by the kit. Data were processed using GraphPad Prism 8, and IC50 was calculated.
[formula] • X: the logarithm of the compound concentration; Y: % inhibition.

[2] = tested on: HCT-116 colorectal cancer cells; test: Inhibitory activity against tumor cells, CellTiter-Glo: HCT-116; conditions: Homo sapiens, 168 h, HCT-116, 7 days treatment
Description: (§1) MCF7 (ATCC #HTB-22) and T47D (ATCC #HTB-133) breast cancer cells and PANC-1 (ATCC #CRL-1469) pancreatic cancer cells were purchased from ATCC. MDA-MB-231 (Cobioer #CBP60382), HCC1806 (Cobioer #CBP60373), and MDA-MB-468 (Cobioer #CBP60387) breast cancer cells, HCT-116 (Cobioer #CBP60028) colorectal cancer cells, and OCI-AML-3 (Cobioer #CBP60817) and MV-4-11 (Cobioer #CBP60522) leukemia cells were purchased from Nanjing Cobioer Biosciences Co., Ltd.
(§2) OCI-AML-3 was cultured in RPMI 1640 medium with 20% FBS; HCC1806 and T47D were cultured in RPMI 1640 medium with 10% FBS; MCF7, MDA-MB-231, MDA-MB-468, and PANC-1 were cultured in DMEM medium with 10% FBS; MV-4-11 was cultured in IMDM medium with 20% FBS; HCT-116 was cultured in MC′5A medium with 10% FBS.
(§3) Palbociclib-resistant cells were constructed on MCF7 parent cells, designated MCF7 Palbo-R, and the culture conditions were consistent with those of the parent cells. All tumor cells were cultured in a cell incubator at 37° C. with 5% CO2. The cells were seeded at corresponding cell densities (600 cells/well for MDA-MB-231; 500 cells/well for MDA-MB-468, PANC-1, and HCT-116; 200 cells/well for MCF7 and HCC1806; 800 cells/well for MCF7 Palbo-R; 3000 cells/well for OCI-AML-3 and MV-4-11) in 384-well plates and cultured overnight in the incubator. On the second day, the cells were treated with compounds. The maximum compound concentration was 10 μM and was 3-fold diluted to obtain 9 concentrations, each tested in duplicate, and the final concentration of DMSO was 0.1%. The cells continued to be cultured in the incubator, with MDA-MB-231, PANC-1, MDA-MB-468, OCI-AML-3, and MV-4-11 being treated with drugs for 5 days and HCC1806, MCF7, MCF7 Palbo-R, and HCT116 being treated with drugs for 7 days. Cell viability was tested using the Celltiter Glo assay kit (Promega), and the testing method was consistent with the operational method provided by the kit. Readings were taken using an Envision multimode microplate reader. Data were processed using GraphPad Prism 8, and IC50 was calculated.
(§4) Y=Bottom+(Top−Bottom)/(1+10^((Log IC50−X)×HillSlope)). Calculation formula: • X: the logarithm of the compound concentration; Y: % inhibition.

[3] = tested on: HCC1806 breast cancer cells; test: Inhibitory activity against tumor cells, CellTiter-Glo: HCC1806; conditions: Homo sapiens, 168 h, HCC1806, 7 days treatment
Description: as §1, §2
as §3, with “calculated. […]” for “calculated.”

T47D breast cancer cells = test: Inhibitory activity against tumor cells, CellTiter-Glo: T47D; conditions: Homo sapiens
Description: as §1, §2, §3, §4

OCI-AML-3 leukemia cells = test: Inhibitory activity against tumor cells, CellTiter-Glo: OCI-AML-3; conditions: Homo sapiens, 120 h, OCI-AML-3, 5 days treatment
Description: as §1, §2
as §3, with “calculated. […]” for “calculated.”

various tumor cell lines = test: Inhibitory activity against tumor cells, summary over the panel of Tables 4 and 5; conditions: summary of Tables 4 and 5
Description: as §1, §2, §3, §4

MV-4-11 leukemia cells = test: Inhibitory activity against tumor cells, CellTiter-Glo: MV-4-11; conditions: Homo sapiens, MV4-11, 120 h, MV-4-11, 5 days treatment
Description: as §1, §2
as §3, with “calculated. […]” for “calculated.”

MCF7 breast cancer cells = test: Inhibitory activity against tumor cells, CellTiter-Glo: MCF7; conditions: Homo sapiens, 168 h, MCF7, 7 days treatment
Description: as §1, §2
as §3, with “calculated. […]” for “calculated.”

[4] = tested on: MDA-MB-231 breast cancer cells; test: Inhibitory activity against tumor cells, CellTiter-Glo: MDA-MB-231; conditions: Homo sapiens, 120 h, MDA-MB-231, 5 days treatment
Description: as §1, §2
as §3, with “calculated. […]” for “calculated.”

[5] = tested on: MCF7 Palbo-R (palbociclib-resistant cells constructed on MCF7); test: Inhibitory activity against tumor cells, CellTiter-Glo: MCF7 Palbo-R; conditions: Homo sapiens, 168 h, 7 days treatment
Description: as §1, §2
as §3, with “calculated. […]” for “calculated.”

[6] = tested on: PANC-1 pancreatic cancer cells; test: Inhibitory activity against tumor cells, CellTiter-Glo: PANC-1; conditions: Homo sapiens, 120 h, PANC-1, 5 days treatment
Description: as §1, §2
as §3, with “calculated. […]” for “calculated.”

[7] = tested on: MDA-MB-468 breast cancer cells; test: Inhibitory activity against tumor cells, CellTiter-Glo: MDA-MB-468; conditions: Homo sapiens, 120 h, MDA-MB-468, 5 days treatment
Description: as §1, §2
as §3, with “calculated. […]” for “calculated.”

SMILES: C[C@@H]1Cc2cnc(NC3Cc4ccccc4C3)nc2CN1C(=O)N[C@H](CN(C)C)c1ccccc1 [Example 7, (R)-2-((2,3-Dihydro-1H-inden-2-yl)amino)-N—((S)-2-(dimethylamino)-1-phenylethyl)-6-methyl-5,8-dihydropyrido[3,4-d]pyrimidine-7(6H)-carboxamide]
- IC50 [1]: 6.44 nM

SMILES: [2H]C([2H])([2H])n1ccc(CNc2ncc3c(n2)CN(C(=O)N[C@H](CN(C)C)c2ccccc2)[C@H](C)C3)n1 [Example 14, (R)—N—((S)-2-(Dimethylamino)-1-phenylethyl)-6-methyl-2-(((1-(methyl-d3)-1H-pyrazol-3-yl)methyl)amino)-5,8-dihydropyrido[3,4-d]pyrimidine-7(6H)-carboxamide]
- IC50 [1]: 40.5 nM

SMILES: Cc1cc(Nc2ncc3c(n2)CN(C(=O)N[C@H](CN(C)C)c2ccccc2)[C@H](C)C3)ccn1 [Example 15, (R)—N—((S)-2-(Dimethylamino)-1-phenylethyl)-6-methyl-2-((2-methylpyridin-4-yl)amino)-5,8-dihydropyrido[3,4-d]pyrimidine-7(6H)-carboxamide]
- IC50 [1]: 26.7 nM

SMILES: CCN(C)C[C@@H](NC(=O)N1Cc2nc(NCc3ccn(C)n3)ncc2C[C@H]1C)c1ccccc1 [Example 8, (R)—N—((S)-2-(Ethyl(methyl)amino)-1-phenylethyl)-6-methyl-2-(((1-methyl-1H-pyrazol-3-yl)methyl)amino)-5,8-dihydropyrido[3,4-d]pyrimidine-7(6H)-carboxamide]
- IC50 [1]: 58.3 nM

SMILES: [2H]C([2H])([2H])N(C[C@@H](NC(=O)N1Cc2nc(NCc3ccn(C)n3)ncc2C[C@H]1C)c1ccccc1)C([2H])([2H])[2H] [Example 12, (R)—N—((S)-2-(Bis(methyl-d3)amino)-1-phenylethyl)-6-methyl-2-(((1-methyl-1H-pyrazol-3-yl)methyl)amino)-5,8-dihydropyrido[3,4-d]pyrimidine-7(6H)-carboxamide]
- IC50 [2]: 66 nM
- IC50 [3]: 28.5 nM
- IC50 (T47D breast cancer cells): 41.5 nM
- IC50 (OCI-AML-3 leukemia cells): 47.1 nM
- inhibitory activity against the various tumor cell lines (in words) (various tumor cell lines): high inhibitory activity
- IC50 [1]: 33.9 nM
- IC50 (MV-4-11 leukemia cells): 27.3 nM
- IC50 (MCF7 breast cancer cells): 21.7 nM
- IC50 [4]: 25.8 nM
- IC50 [5]: 43.3 nM
- IC50 [6]: 50.3 nM
- IC50 [7]: 32.4 nM

SMILES: CC1Cc2cnc(NC3CCOCC3)nc2CN1C(=O)N[C@H](CN(C)C)c1ccccc1 (stereo partly drawn) [Example 10, N—((S)-2-(Dimethylamino)-1-phenylethyl)-6-methyl-2-((tetrahydro-2H-pyran-4-yl)amino)-5,8-dihydropyrido[3,4-d]pyrimidine-7(6H)-carboxamide]
- IC50 [1]: 42.6 nM

SMILES: C[C@@H]1Cc2cnc(N[C@H](C)c3ccccc3)nc2CN1C(=O)N[C@H](CN(C)C)c1ccccc1 [Example 5, (R)—N—((S)-2-(Dimethylamino)-1-phenylethyl)-6-methyl-2-(((R)-1-phenylethyl)amino)-5,8-dihydropyrido[3,4-d]pyrimidine-7(6H)-carboxamide]
- IC50 [1]: 81.2 nM

SMILES: [2H]C([2H])([2H])N(C[C@@H](NC(=O)N1Cc2nc(N[C@@H](C)c3ccccn3)ncc2C[C@H]1C)c1ccccc1)C([2H])([2H])[2H] [Example 19, (R)—N—((S)-2-(Bis(methyl-d3)amino)-1-phenylethyl)-6-methyl-2-(((S)-1-(pyridin-2-yl)ethyl)amino)-5,8-dihydropyrido[3,4-d]pyrimidine-7(6H)-carboxamide]
- IC50 [2]: 29.2 nM
- IC50 (T47D breast cancer cells): 14.1 nM
- inhibitory activity against the various tumor cell lines (in words) (various tumor cell lines): high inhibitory activity
- IC50 [1]: 26.1 nM

SMILES: C[C@@H]1Cc2cnc(NCc3ccn(C)n3)nc2CN1C(=O)N[C@H](CN(C)C)c1cccc(Cl)c1 [Example 13, (R)—N—((S)-1-(3-Chlorophenyl)-2-(dimethylamino)ethyl)-6-methyl-2-(((1-methyl-TH-pyrazol-3-yl)methyl)amino)-5,8-dihydropyrido[3,4-d]pyrimidine-7(6H)-carboxamide]
- IC50 [1]: 21.7 nM

The remaining molecules from weak to strong by IC50 [1], led by results:

- IC50 [1]: 22.5 nM
SMILES: C[C@@H]1Cc2cnc(Nc3cnn(C)c3)nc2CN1C(=O)N[C@H](CN(C)C)c1ccccc1 [Example 17, (R)—N—((S)-2-(Dimethylamino)-1-phenylethyl)-6-methyl-2-((1-methyl-1H-pyrazol-4-yl)amino)-5,8-dihydropyrido[3,4-d]pyrimidine-7(6H)-carboxamide]

- IC50 [1]: 13.8 nM
SMILES: C[C@H](Nc1ncc2c(n1)CN(C(=O)N[C@H](CN(C)C)c1ccccc1)[C@H](C)C2)c1ccccc1 [Example 9, (R)—N—((S)-2-(Dimethylamino)-1-phenylethyl)-6-methyl-2-(((S)-1-phenylethyl)amino)-5,8-dihydropyrido[3,4-d]pyrimidine-7(6H)-carboxamide]

- IC50 [1]: 11.5 nM
SMILES: C#Cc1cccc([C@@H]2CN(C)CC[C@H]2C(=O)N2Cc3nc(NCc4ccn(C)n4)ncc3C[C@H]2C)c1 [Compound 1-2, ((3R,4R)-3-(3-Ethynylphenyl)-1-methylpiperidin-4-yl)((R)-6-methyl-2-(((1-methyl-1H-pyrazol-3-yl)methyl)amino)-5,8-dihydropyrido[3,4-d]pyrimidin-7(6H)-yl)methanone]

- IC50 [1]: 9.99 nM
SMILES: C[C@@H]1Cc2cnc(Nc3cnn(CC4CC4)c3)nc2CN1C(=O)N[C@H](CN(C)C)c1ccccc1 [Example 16, (R)-2-((1-(Cyclopropylmethyl)-1H-pyrazol-4-yl)amino)-N—((S)-2-(dimethylamino)-1-phenylethyl)-6-methyl-5,8-dihydropyrido[3,4-d]pyrimidine-7(6H)-carboxamide]
